US20210253598A1, “ARYL ANNULATED MACROCYCLIC INDOLE DERIVATIVES” (priority 2017, published 2021)
Structures can show the parent of a compound that is named as a salt. Where two headings read alike, the source gives them in different places.

How the values were obtained:
[1] = molecular target: BCL-XL (Homo sapiens, UniProt Q07817); assay: Protein-protein interaction assay BCL-XL/Bad BH3 peptide, TR-FRET (BCL-XL assay, Assay 2); type: binding; conditions: His-BCL-XL / Bad BH3 peptide, median
[2] = tested on: SUDHL10; assay: Induction of caspase-3/7 activity in SUDHL10 cells (Assay 4); type: cell-based
How it was run: (§1)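 DLBCL lines SUDHL5 and SUDHL10 were treated with compound for 3 h at 37 °C. Caspase-3/7 activity was then read by Caspase-Glo 3/7 luminescence after 1 h at 37 °C. Medium-only background was subtracted and values were normalized to the mean of DMSO-treated cells.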

[3] = molecular target: BCL-2 (Homo sapiens, UniProt P10415); assay: Protein-protein interaction assay BCL-2/Bad BH3 peptide, TR-FRET (BCL-2 assay, Assay 3); type: binding; conditions: His-BCL-2 / Bad BH3 peptide, median
[4] = tested on: SUDHL5; assay: Induction of cytotoxicity in SUDHL5 cells, CellTiter-Glo (Assay 6); type: cell-based; conditions: SUDHL5, 5 hours incubation, median, read-out: Cytotox SUDHL5 [M] (median)
How it was run: (§2)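 Cells plated and held overnight at 37° C in a humidified incubator, then compound-treated for 5 hours at 37° C. Viability read by CellTiter-Glo luminescence after 15 minutes shaking at room temperature; cell-free medium served as control.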

[5] = tested on: SUDHL5; assay: Anti-proliferative effect in SUDHL5 cells, CellTiter-Glo (Assay 7); type: cell-based
How it was run: (§3)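 Proliferation is measured as luminescence from CellTiter-Glo after cells grow with compound for 72 h in a humidified 37 °C incubator. A reference plate read at time zero supplies the day 0 baseline, and DMSO wells serve as control for IC50 calculation.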

[6] = tested on: AMO-1; assay: Anti-proliferative effect in AMO-1 cells, CellTiter-Glo (Assay 7); type: cell-based; conditions: read-out: Antiproli AMO-1; AMO-1, 72 hours incubation, CellTiter-Glo; several values per example
How it was run: as §3

[7] = molecular target: MCL-1 (Homo sapiens, UniProt Q07820, K194A/K197A/R201A); assay: Protein-protein interaction assay MCL-1/Noxa BH3 peptide, TR-FRET (MCL-1 assay, Assay 1); type: binding; conditions: MCL-1 Assay [M] (median), MBP-MCL-1 / Noxa BH3 peptide
How it was run: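 Human MBP-fused MCL-1 (aa 173-321; 1 nM final) was pre-incubated 10 min at 22 °C with compound in pH 7 Tris buffer containing NaCl, KF, Tween-20, DTT and BGG. Displacement of biotinylated Noxa BH3 peptide was read by TR-FRET (anti-MBP-Eu cryptate/streptavidin-XL665) after 1 h at 22 °C plus overnight at 4 °C. IC50 came from four-parameter fits against DMSO controls.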

[8] = tested on: SUDHL5; assay: Induction of caspase-3/7 activity in SUDHL5 cells (Assay 4); type: cell-based
How it was run: as §1

[9] = tested on: SUDHL10; assay: Induction of cytotoxicity in SUDHL10 cells, CellTiter-Glo (Assay 6); type: cell-based; conditions: SUDHL10, 5 hours incubation, median, read-out: Cytotox SUDHL10 [M] (median)
How it was run: as §2

[10] = tested on: MV-4-11; assay: Anti-proliferative effect in MV-4-11 cells, CellTiter-Glo (Assay 7); type: cell-based
How it was run: as §3

[11] = tested on: A2780; assay: Anti-proliferative effect in A2780 cells, CellTiter-Glo (Assay 7); type: cell-based; conditions: A2780, 72 hours incubation, CellTiter-Glo, several values per example, read-out: Antiproli A2780
How it was run: as §3

[12] = Homo sapiens, SU-DHL10, 3 h, SUDHL10, 3 hours treatment, Caspase-Glo 3/7, median, read-out: Caspase SUDHL10 [M] (median)
[13] = Homo sapiens, SU-DHL-5, 72 h, SUDHL5, 72 hours incubation, CellTiter-Glo, median, read-out: Antiproli SUDHL5 [M] (median)
[14] = Homo sapiens, SU-DHL-5, 3 h, SUDHL5, 3 hours treatment, Caspase-Glo 3/7, median, read-out: Caspase SUDHL5 [M] (median)
[15] = Homo sapiens, MV4-11, 72 h, MV-4-11, 72 hours incubation, CellTiter-Glo; several values per example; read-out: Antiproli MV-4-11

Sequence of BCL-2 (P10415 1-211): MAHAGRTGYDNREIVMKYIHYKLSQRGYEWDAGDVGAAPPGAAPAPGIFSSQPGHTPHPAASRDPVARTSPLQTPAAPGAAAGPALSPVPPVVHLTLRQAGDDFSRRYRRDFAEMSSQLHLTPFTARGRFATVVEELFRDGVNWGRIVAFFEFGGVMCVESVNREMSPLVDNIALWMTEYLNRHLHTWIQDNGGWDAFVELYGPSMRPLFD
Sequence of BCL-XL (Q07817 1-212): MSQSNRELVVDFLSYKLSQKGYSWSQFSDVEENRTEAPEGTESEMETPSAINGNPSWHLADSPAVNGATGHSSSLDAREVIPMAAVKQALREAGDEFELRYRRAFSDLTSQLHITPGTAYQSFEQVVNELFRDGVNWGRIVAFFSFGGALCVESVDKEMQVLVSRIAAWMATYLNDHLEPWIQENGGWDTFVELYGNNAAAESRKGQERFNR
Sequence of MCL-1 (Q07820 173-321 K194A/K197A/R201A, looked up): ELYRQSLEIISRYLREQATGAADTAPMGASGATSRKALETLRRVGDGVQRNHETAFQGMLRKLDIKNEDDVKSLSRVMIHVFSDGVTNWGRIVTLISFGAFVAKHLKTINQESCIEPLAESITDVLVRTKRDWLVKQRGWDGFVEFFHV

Compound | IC50 [1] | EC50 ([2]; read-out: Caspase SUDHL10 [M] (median), SUDHL10, 3 hours treatment, Caspase-Glo 3/7) | IC50 [3] | IC50 [4] | IC50 ([5]; read-out: Antiproli SUDHL5 [M] (median), SUDHL5, 72 hours incubation, CellTiter-Glo) | IC50 [6] | IC50 [7] | EC50 ([8]; read-out: Caspase SUDHL5 [M] (median), SUDHL5, 3 hours treatment, Caspase-Glo 3/7) | IC50 [9] | IC50 ([10]; read-out: Antiproli MV-4-11; MV-4-11, 72 hours incubation, CellTiter-Glo; several values per example) | IC50 ([11]; Homo sapiens, A2780, 72 h) | EC50 [2, 12] | IC50 ([4]; Homo sapiens, SU-DHL-5, 5 h) | IC50 [5, 13] | EC50 [8, 14] | IC50 ([9]; Homo sapiens, SU-DHL10, 5 h) | IC50 [10, 15] | IC50 [11] | IC50 ([10]; MV-4-11, 72 hours incubation, CellTiter-Glo; several values per example; read-out: Antiproli MV-4-11)
CCc1c2c(nn1C)COCc1ccccc1Cn1c(C(=O)O)c(CCCOc3cccc4cc(F)ccc34)c3ccc(F)c-2c31 (single isomer, unassigned; enantiomer 1) [Example 74, (−)-4-Ethyl-3-fluoro-17-{3-[(6-fluoronaphthalen-1-yl)oxy]propyl}-5-methyl-5,7,9,14-tetrahydroindolo[7,1-fg]pyrazolo[3,4-d][2,8]benzoxazacycloundecine-16-carboxylic acid-N-ethylethanamine Salt (Enantiomer 1)] | > 20 µM | 1.2e-06 M | 19.8 µM | 1.1e-06 M | 1.3e-06 M | 1.78 µM | 9.2e-10 M | 8.2e-07 M | 1.4e-06 M | 3.65 µM | – | – | – | – | – | – | – | – | –
Cc1nn(C)c2c1-c1c(F)ccc3c(CCCOc4cccc5c4CCC5)c(C(=O)O)n(c13)Cc1ccccc1COC2 (racemic) [Example 84, (rac)-1-(3-((2,3-Dihydro-1H-inden-4-yl)oxy)propyl)-15-fluoro-12,14-dimethyl-4,9,11,12-tetrahydrobenzo[3,4]pyrazolo[4′,3′:9,10][1]oxa[6]azacycloundecino[8,7,6-hi]indole-2-carboxylic Acid] | > 20 µM | – | > 20 µM | – | – | – | 6.2e-09 M | – | – | – | 31 µM | 2.7e-05 M | 1.1e-05 M | 7.7e-06 M | 9.8e-06 M | 2.2e-05 M | 12.5 µM | – | –
CCc1nn(C)c2c1-c1c(F)ccc3c(CCCOc4cccc5c4CCCC5)c(C(=O)O)n(c13)Cc1ccccc1COC2 (racemic) [Example 88, (rac)-14-Ethyl-15-fluoro-12-methyl-1-(3-((5,6,7,8-tetrahydronaphthalen-1-yl)oxy)propyl)-4,9,11,12-tetrahydrobenzo[3,4]pyrazolo[4′,3′:9,10][1,6]oxaazacycloundecino[8,7,6-hi]indole-2-carboxylic Acid] | > 20 µM | – | 13.7 µM | – | – | – | 7.4e-09 M | – | – | – | 15.1 µM | 1.7e-05 M | 7.4e-06 M | 6e-06 M | 6.2e-06 M | 1.5e-05 M | 9.93 µM | – | –
Cc1c2c(nn1C)COCc1ccccc1Cn1c(C(=O)O)c(CCCOc3cccc4c3CCCC4)c3ccc(F)c-2c31 (racemic) [Example 62, (rac)-15-Fluoro-13,14-dimethyl-1-(3-((5,6,7,8-tetrahydronaphthalen-1-yl)oxy)propyl)-4,9,11,13-tetrahydrobenzo[3,4]pyrazolo[4′,3′:9,10][1,6]oxaazacycloundecino[8,7,6-hi]indole-2-carboxylic Acid] | > 20 µM | – | > 20 µM | – | – | – | 2.6e-09 M | – | – | – | 13.9 µM | 1e-05 M | 2.9e-06 M | 3.1e-06 M | 3.2e-06 M | 5.2e-06 M | 6.36 µM | – | –
Cc1c2c(nn1C)COCc1ccccc1Cn1c(C(=O)O)c(CCCOc3ccc(F)c4ccccc34)c3ccc(F)c-2c31 (racemic) [Example 63, (rac)-15-Fluoro-1-(3-((4-fluoronaphthalen-1-yl)oxy)propyl)-13,14-dim4,9,11,13-tetrahydrobenzo[3,4]pyrazolo[4′,3′:9,10][1,6]oxaazacycloundecino[8,7,6-hi]indole-2-carboxylic Acid] | > 20 µM | – | 18.1 µM | – | – | – | 4.5e-09 M | – | – | – | 19.7 µM | 2.3e-05 M | 8.3e-06 M | 6.2e-06 M | 9.3e-06 M | 1.5e-05 M | > 33 µM | – | –
CCc1c2c(nn1C)COCc1ccccc1Cn1c(C(=O)O)c(CCCOc3ccc(F)c4ccccc34)c3ccc(F)c-2c31 (racemic) [Example 76, (rac)-14-Ethyl-15-fluoro-1-(3-((4-fluoronaphthalen-1-yl)oxy)propyl)-13-methyl-4,9,11,13-tetrahydrobenzo[3,4]pyrazolo[4′,3′:9,10][1]oxa[6]azacycloundecino[8,7,6-hi]indole-2-carboxylic Acid] | > 20 µM | – | 15.8 µM | – | – | – | 3.1e-09 M | – | – | – | 16.6 µM | 1.3e-05 M | 3.4e-06 M | 3.7e-06 M | 3.3e-06 M | 9.4e-06 M | 9.05 µM | 25 µM | 10.1 µM
Cc1cc(OCCCc2c(C(=O)O)n3c4c(c(F)ccc24)-c2c(nn(C)c2C)COCc2ccccc2C3)cc(C)c1Cl [Example 60, (rac)-1-(3-(4-Chloro-3,5-dimethylphenoxy)propyl)-15-fluoro-13,14-dimethyl-4,9,11,13-tetrahydrobenzo[3,4]pyrazolo[4′,3′:9,10][1,6]oxaazacycloundecino[8,7,6-hi]indole-2-carboxylic Acid] | > 20 µM | – | 19.8 µM | – | – | – | 2.9e-09 M | – | – | – | 23 µM | 1.2e-05 M | 3.7e-06 M | 5.1e-06 M | 3e-06 M | 7.6e-06 M | 5.75 µM | – | –
Cc1c2c(nn1C)COCc1ccccc1Cn1c(C(=O)O)c(CCCOc3cccc4c3CCC4)c3ccc(F)c-2c31 (racemic) [Example 61, (rac)-1-(3-((2,3-Dihydro-1H-inden-4-yl)oxy)propyl)-15-fluoro-13,14-dimethyl-4,9,11,13-tetrahydrobenzo[3,4]pyrazolo[4′,3′:9,10][1,6]oxaazacycloundecino[8,7,6-hi]indole-2-carboxylic Acid] | > 20 µM | – | > 20 µM | – | – | – | 2.1e-09 M | – | – | – | 22.8 µM | 5.8e-06 M | 2.3e-06 M | 2.1e-06 M | 2.5e-06 M | 5e-06 M | 3.57 µM | – | –
